The subject of one test is Purinergic P2X. The test can be described thus: Eurofins Diversity Panel. It counts as binding. Particulars: rabbit, Conc. 10 μM.
The next test concerns the target RIOK2 (Homo sapiens, UniProt Q9BVS4). The test can be described thus: KINOMEscan: RIOK2. Particulars: 100 nM, read-out: Percent Control. It counts as binding.
Another test addresses RIOK3 (Homo sapiens, UniProt O14730). The test can be described thus: KINOMEscan: RIOK3. Type of test: binding. Particulars: 100 nM, read-out: Percent Control.
Another test has as its target SGK2 (Homo sapiens, UniProt Q9HBY8). Nature of the test: KINOMEscan: SGK2. Type of test: binding. Particulars: 100 nM, read-out: Percent Control.
The next test has as its target SRPK3 (Homo sapiens, UniProt Q9UPE1). The test can be described thus: KINOMEscan: SRPK3. Particulars: 100 nM, read-out: Percent Control. It counts as binding.
Another test addresses CDK3 (Homo sapiens, UniProt Q00526). Nature of the test: KINOMEscan: CDK3. It counts as binding. Particulars: 1000 nM, read-out: Percent Control.
The next test addresses DYRK1B (Homo sapiens, UniProt Q9Y463). Nature of the test: KINOMEscan: DYRK1B. As to conditions: 1000 nM, read-out: Percent Control. Type of test: binding.
The target in another test is EPHB2 (Homo sapiens, UniProt P29323). The test can be described thus: KINOMEscan: EPHB2. As to conditions: 1000 nM, read-out: Percent Control. It counts as binding.
The target of the next test is ERBB3 (Homo sapiens, UniProt P21860). The test can be described thus: KINOMEscan: ERBB3. Type of test: binding. As to conditions: 1000 nM, read-out: Percent Control.
The target in the next test is FLT3(N841I) (Homo sapiens, UniProt P36888, N841I). The test can be described thus: KINOMEscan: FLT3(N841I). As to conditions: 1000 nM, read-out: Percent Control. Type of test: binding.
The next test addresses GRK4 (Homo sapiens, UniProt P32298). The test can be described thus: KINOMEscan: GRK4. Particulars: 1000 nM, read-out: Percent Control. It counts as binding.
The target of another test is GRK7 (Homo sapiens, UniProt Q8WTQ7). The test can be described thus: KINOMEscan: GRK7. Type of test: binding. As to conditions: 1000 nM, read-out: Percent Control.
For the next test, the target named is HIPK3 (Homo sapiens, UniProt Q9H422). Nature of the test: KINOMEscan: HIPK3. It counts as binding. Particulars: 1000 nM, read-out: Percent Control.
The target in a further test is IRAK3 (Homo sapiens, UniProt Q9Y616). Nature of the test: KINOMEscan: IRAK3. It counts as binding. As to conditions: 1000 nM, read-out: Percent Control.
In test [1] the target is JAK1(JH1domain-catalytic) (Homo sapiens, UniProt P23458). Nature of the test: KINOMEscan: JAK1(JH1domain-catalytic). It counts as binding. As to conditions: 1000 nM, read-out: Percent Control.
The target in another test is KIT(L576P) (Homo sapiens, UniProt P10721, L576P). Nature of the test: KINOMEscan: KIT(L576P). It counts as binding. As to conditions: 1000 nM, read-out: Percent Control.
The next test concerns the target MET(Y1235D) (Homo sapiens, UniProt P08581, Y1235D). Nature of the test: KINOMEscan: MET(Y1235D). It counts as binding. Particulars: 1000 nM, read-out: Percent Control.
The target of another test is CDK7/Cyclin H (Homo sapiens, UniProt P50613). Nature of the test: HotSpot radiometric kinase assay. Details: purchased ReactionBio. Type of test: biochemical. On the procedure:
(§1) We next compared VIP152 to other CDK inhibitors currently in development. […] The compounds were tested in a 10-dose series from 0.5 nM to 10 µM against CDK9 in complex with Cyclin T1/T2/K, CDK7/Cyclin H, and GSK3α/β.
(§2) Kinomescan Kinase Profiling Assay
(§3) Kinomescan Assay was performed at DiscoverRX and described in Fabian, et al. 2005, Nat.
(§4) Biotechnol. In brief, kinases were produced and subsequently tagged with DNA for qPCR detection.
(§5) Streptavidin-coated magnetic beads were bound to biotinylated kinase ligands to serve as a solid support.
(§6) VIP152 was dissolved in DMSO and tested across a 10 serial threefold dilution set and compared to a test […]
(§7) compound and a DMSO control.
(§8) Kinome map was produced via TreeSpot
(§9) Analysis from DiscoverRX.
(§10) HotSpot Kinase Assay Protocol
(§11) Compounds tested via HotSpot Kinase Assay were sent to ReactionBio for the experiment. The […]
(§12) Kinase substrate was added to reaction buffer (20 mM Hepes (pH 7.5), 10 mM MgCl2, 1 mM EGTA, 0.01% Brij35, 0.02 mg/ml BSA, 0.1 mM Na3VO4, 2 mM DTT, 1% DMSO). Cofactors and kinases were gently added to the reaction buffer. Compounds to be tested were dissolved in 100% DMSO and were delivered into the kinase reaction mixture by Acoustic technology (Echo550; nanoliter range) and incubated for 20 min at room temperature. […] Kinase activity was detected by P81 filter-binding method. […]

The next test has as its target GSK3α (Homo sapiens, UniProt P49840). The test can be described thus: HotSpot radiometric kinase assay. Type of test: biochemical. Details: purchased ReactionBio. Particulars: 10-dose series from 0.5 nM to 10 µM; vs dinaciclib, KB-0742, atuveciclib. On the procedure:
as §1, §2, §3, §4, §5, §6, §7, §8, §9, §10, §11, §12

Bounds are passed on as bounds.

Results on one compound are retold here after publication PMC9898036, “VIP152 is a selective CDK9 inhibitor with pre-clinical in vitro and in vivo efficacy in chronic lymphocytic leukemia” (Leukemia, 2022).

Sequence of DYRK1B (Q9Y463 whole entry): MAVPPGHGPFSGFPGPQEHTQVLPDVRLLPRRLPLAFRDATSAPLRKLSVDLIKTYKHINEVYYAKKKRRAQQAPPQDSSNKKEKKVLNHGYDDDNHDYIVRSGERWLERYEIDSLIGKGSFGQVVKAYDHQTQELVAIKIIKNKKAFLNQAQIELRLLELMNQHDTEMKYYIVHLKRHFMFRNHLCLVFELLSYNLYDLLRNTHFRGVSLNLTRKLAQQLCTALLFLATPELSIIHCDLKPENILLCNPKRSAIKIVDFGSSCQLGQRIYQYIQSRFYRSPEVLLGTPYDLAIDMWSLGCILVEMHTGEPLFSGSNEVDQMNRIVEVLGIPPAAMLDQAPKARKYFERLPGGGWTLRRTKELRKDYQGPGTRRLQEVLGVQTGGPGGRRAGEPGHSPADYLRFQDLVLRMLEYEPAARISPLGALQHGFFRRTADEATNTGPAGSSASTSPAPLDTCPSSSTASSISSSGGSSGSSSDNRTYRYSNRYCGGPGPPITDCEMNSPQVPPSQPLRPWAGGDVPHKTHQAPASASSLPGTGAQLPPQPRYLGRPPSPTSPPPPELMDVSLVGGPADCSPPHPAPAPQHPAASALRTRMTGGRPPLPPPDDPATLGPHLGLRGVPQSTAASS
Sequence of CDK7/Cyclin H (P50613 whole entry): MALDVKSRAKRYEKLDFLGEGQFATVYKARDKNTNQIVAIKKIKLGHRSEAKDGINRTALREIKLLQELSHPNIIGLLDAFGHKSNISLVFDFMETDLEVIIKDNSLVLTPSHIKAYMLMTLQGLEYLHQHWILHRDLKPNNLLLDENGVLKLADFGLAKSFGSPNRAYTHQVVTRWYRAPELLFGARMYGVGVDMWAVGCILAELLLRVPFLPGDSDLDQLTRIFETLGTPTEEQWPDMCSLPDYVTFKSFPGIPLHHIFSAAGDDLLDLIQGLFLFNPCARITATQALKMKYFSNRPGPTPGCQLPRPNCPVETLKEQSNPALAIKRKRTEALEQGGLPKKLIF
Sequence of CDK7/Cyclin H (P51946 whole entry partner): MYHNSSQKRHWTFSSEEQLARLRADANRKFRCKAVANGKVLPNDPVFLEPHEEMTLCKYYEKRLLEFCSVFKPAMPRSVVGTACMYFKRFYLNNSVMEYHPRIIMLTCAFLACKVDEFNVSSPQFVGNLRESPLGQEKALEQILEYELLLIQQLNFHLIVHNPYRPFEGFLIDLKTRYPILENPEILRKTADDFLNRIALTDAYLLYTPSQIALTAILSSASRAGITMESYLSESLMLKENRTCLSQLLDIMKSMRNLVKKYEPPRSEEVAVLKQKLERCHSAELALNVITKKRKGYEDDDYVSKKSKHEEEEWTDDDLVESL
Sequence of CDK7/Cyclin H (P51948 whole entry partner): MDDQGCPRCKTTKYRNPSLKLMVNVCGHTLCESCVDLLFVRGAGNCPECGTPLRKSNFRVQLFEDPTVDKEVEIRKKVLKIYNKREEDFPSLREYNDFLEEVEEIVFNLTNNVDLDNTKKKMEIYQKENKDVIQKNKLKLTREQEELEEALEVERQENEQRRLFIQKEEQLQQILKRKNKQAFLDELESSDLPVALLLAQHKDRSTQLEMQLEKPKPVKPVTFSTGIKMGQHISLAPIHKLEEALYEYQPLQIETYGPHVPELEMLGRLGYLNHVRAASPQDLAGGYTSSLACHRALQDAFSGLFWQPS
Sequence of SGK2 (Q9HBY8 whole entry): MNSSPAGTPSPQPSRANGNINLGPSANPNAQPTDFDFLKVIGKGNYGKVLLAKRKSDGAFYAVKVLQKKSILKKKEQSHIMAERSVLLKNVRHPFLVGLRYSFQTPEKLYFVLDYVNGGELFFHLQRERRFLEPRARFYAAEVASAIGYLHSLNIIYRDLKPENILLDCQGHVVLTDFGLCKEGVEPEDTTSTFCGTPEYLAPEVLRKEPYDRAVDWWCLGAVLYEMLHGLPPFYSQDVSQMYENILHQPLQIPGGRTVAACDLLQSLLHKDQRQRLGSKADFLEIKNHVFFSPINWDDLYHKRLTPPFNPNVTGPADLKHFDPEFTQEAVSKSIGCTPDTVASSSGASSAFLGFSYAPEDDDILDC
Sequence of HIPK3 (Q9H422 whole entry): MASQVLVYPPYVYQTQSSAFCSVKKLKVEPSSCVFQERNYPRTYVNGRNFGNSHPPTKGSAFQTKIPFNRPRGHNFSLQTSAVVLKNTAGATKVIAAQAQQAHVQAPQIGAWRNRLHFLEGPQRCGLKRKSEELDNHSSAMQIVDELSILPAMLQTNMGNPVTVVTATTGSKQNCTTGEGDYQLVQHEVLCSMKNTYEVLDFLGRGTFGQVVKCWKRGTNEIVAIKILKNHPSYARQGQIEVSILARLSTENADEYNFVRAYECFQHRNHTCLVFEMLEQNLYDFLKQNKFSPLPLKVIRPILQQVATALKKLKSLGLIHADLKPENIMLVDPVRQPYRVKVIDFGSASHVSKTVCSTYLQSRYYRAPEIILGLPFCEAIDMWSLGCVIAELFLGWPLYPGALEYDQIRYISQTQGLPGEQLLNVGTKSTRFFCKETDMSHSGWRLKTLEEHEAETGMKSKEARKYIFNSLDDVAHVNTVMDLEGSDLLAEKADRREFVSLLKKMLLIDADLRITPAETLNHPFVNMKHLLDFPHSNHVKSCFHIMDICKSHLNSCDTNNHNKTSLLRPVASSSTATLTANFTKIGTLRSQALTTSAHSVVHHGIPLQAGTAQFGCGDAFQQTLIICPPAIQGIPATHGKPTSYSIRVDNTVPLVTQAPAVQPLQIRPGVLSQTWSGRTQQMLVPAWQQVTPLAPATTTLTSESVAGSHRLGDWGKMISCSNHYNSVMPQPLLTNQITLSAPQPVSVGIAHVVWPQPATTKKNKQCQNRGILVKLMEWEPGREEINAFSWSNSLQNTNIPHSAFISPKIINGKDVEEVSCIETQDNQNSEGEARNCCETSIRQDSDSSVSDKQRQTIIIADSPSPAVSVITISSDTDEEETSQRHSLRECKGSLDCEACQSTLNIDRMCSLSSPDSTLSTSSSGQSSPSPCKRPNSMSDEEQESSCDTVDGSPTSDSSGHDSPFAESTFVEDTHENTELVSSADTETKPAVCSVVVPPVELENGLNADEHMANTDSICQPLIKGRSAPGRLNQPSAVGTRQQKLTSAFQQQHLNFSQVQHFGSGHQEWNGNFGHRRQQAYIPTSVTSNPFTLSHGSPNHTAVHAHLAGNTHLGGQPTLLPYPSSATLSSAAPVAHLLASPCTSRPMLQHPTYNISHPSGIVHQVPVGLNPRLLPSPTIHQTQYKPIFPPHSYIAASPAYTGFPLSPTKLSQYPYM
Sequence of RIOK3 (O14730 whole entry): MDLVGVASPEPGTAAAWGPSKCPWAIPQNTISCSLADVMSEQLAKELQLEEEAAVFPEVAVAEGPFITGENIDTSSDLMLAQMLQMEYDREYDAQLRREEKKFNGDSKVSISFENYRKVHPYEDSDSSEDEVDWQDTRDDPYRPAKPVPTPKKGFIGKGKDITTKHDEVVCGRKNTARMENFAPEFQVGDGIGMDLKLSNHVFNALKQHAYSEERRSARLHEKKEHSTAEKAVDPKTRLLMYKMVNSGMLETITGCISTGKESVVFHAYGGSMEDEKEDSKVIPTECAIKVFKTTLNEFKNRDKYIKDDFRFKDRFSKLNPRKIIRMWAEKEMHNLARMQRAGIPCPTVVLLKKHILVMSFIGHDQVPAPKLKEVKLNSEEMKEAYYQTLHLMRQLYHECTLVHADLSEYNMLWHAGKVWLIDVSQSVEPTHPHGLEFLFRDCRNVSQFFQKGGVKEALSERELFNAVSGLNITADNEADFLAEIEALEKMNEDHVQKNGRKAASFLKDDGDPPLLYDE
Sequence of GRK4 (P32298 whole entry): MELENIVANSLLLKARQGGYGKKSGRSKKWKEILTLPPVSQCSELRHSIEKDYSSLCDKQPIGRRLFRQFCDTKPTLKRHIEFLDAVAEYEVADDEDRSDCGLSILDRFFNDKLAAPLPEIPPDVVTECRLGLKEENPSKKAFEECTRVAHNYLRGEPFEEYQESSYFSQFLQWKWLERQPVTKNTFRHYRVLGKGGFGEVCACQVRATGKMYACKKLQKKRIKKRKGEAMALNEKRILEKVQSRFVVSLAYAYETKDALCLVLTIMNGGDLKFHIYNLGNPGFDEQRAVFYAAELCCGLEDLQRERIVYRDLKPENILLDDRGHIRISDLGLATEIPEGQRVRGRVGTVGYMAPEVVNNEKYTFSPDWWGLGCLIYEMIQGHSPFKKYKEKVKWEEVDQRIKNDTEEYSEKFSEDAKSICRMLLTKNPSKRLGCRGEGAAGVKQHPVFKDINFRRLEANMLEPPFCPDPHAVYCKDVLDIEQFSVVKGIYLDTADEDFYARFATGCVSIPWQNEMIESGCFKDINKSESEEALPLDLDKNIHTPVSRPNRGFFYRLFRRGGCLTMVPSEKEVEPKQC
Sequence of IRAK3 (Q9Y616 whole entry): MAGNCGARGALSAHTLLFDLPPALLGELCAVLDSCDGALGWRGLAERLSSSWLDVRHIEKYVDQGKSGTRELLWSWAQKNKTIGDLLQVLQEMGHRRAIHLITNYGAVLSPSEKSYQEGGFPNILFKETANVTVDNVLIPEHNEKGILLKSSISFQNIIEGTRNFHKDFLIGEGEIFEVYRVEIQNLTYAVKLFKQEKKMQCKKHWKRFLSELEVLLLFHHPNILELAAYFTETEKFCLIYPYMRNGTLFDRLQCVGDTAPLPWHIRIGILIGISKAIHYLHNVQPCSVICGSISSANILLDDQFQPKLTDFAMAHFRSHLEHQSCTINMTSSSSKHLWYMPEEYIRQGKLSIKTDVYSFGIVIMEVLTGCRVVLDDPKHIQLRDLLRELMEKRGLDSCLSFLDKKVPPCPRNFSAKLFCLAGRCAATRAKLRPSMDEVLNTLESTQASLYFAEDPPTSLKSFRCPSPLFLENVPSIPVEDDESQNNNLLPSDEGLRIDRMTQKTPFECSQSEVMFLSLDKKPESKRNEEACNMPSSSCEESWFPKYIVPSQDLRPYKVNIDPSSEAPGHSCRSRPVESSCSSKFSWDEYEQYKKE

Consider `COc1cc(F)ccc1-c1cc(Nc2cc(CS(C)(=N)=O)ccn2)ncc1F` (stereo not shown) [VIP152], for which the “% Inh.” value in the test on Purinergic P2X amounted to 11%. Moreover, the remaining binding at 0.1 µM on RIOK2, at RIOK3, at SGK2 and at SRPK3 was 100% each time. In addition, the remaining binding at 1 µM on CDK3 came out at 37%; at DYRK1B it was 20%; at EPHB2, 92%; at ERBB3, 98%; on FLT3(N841I), 54%; on GRK4, 26%. For the same compound, the remaining binding at 1 µM was 87% on GRK7; 66% at HIPK3; 52% on IRAK3; 96% in [1]; 72% at KIT(L576P); 19% on MET(Y1235D). Besides, the IC50 – broadly, the concentration that gives 50% inhibition – on CDK7/Cyclin H is above 10 µM. Moreover, the “potency versus the other inhibitors tested” value at GSK3α is given as “higher potency”.
